Experimental data taken from patent US6977262B2, “Dihydropyrazolopyridine compounds and pharmaceutical use thereof” (Mitsubishi Pharma Corporation, priority 2001, dated 2005).

melting point	Structure (SMILES)
174 °C	N#CC1=C(c2ccccc2)Nc2n[nH]cc2C1c1cccc2ccccc12 (stereo not drawn) [Example 146, 5-Cyano-4,7-dihydro-4-(naphthalen-1-yl)-6-phenyl-2H-pyrazolo[3,4-b]pyridine]
129 to 131 °C	CCCC1=C(C(=O)OCC)C(c2cccs2)c2c[nH]nc2N1.O=C(O)/C=C\C(=O)O (stereo not drawn) [Example 62, Ethyl 4,7-dihydro-6-propyl-4-(thiophen-2-yl)-2H-pyrazolo[3,4-b]pyridine-5-carboxylate maleate]
> 270 °C	CCCC1=C(C#N)C(c2ccccc2Cl)c2c(n[nH]c2-c2ccccc2OC)N1 (stereo not drawn) [Example 296, 4-(2-Chlorophenyl)-5-cyano-4,7-dihydro-3-(2-methoxyphenyl)-6-propyl-2H-pyrazolo[3,4-b]pyridine]
210 to 212 °C (dec.)	CCCC1=C(C(=O)OCC)C(c2cccc(C#N)c2Br)c2c[nH]nc2N1 (stereo not drawn) [Example 183, Ethyl 4-(2-bromo-3-cyanophenyl)-4,7-dihydro-6-propyl-2H-pyrazolo[3,4-b]pyridine-5-carboxylate]
150 to 151 °C	CCCC1=C(C(=O)OCC)C(c2ccccc2Cl)c2cn(C)nc2N1 (stereo not drawn) [Example 231, Ethyl 4-(2-chlorophenyl)-4,7-dihydro-2-methyl-6-propyl-2H-pyrazolo[3,4-b]pyridine-5-carboxylate]
230 °C	N#CC1=C(c2cccs2)Nc2n[nH]cc2C1c1cccc2nonc12 (stereo not drawn) [Example 171, 4-(2,1,3-Benzoxadiazol-4-yl)-5-cyano-4,7-dihydro-6-(thiophen-2-yl)-2H-pyrazolo[3,4-b]pyridine]
165 to 168 °C	CCOC(=O)C1=C(C(F)(F)F)Nc2n[nH]c(C)c2C1c1ccccc1Cl (stereo not drawn) [Example 21, Ethyl 4-(2-chlorophenyl)-4,7-dihydro-3-methyl-6-trifluoromethyl-2H-pyrazolo[3,4-b]pyridine-5-carboxylate]
224 °C	CCCC1=C(C#N)C(c2ccncc2)c2c[nH]nc2N1 (stereo not drawn) [Example 337, 5-Cyano-4,7-dihydro-6-propyl-4-(pyridin-4-yl)-2H-pyrazolo[3,4-b]pyridine]
148 °C	N#CC1=C(c2ccccc2)Nc2n[nH]cc2C1c1ccccc1C#N (stereo not drawn) [Example 144, 5-Cyano-4-(2-cyanophenyl)-4,7-dihydro-6-phenyl-2H-pyrazolo[3,4-b]pyridine]
284 °C	CCCC1=C(C#N)C(c2ccccc2Cl)c2c(n[nH]c2-c2ccc(OC)cc2)N1 (stereo not drawn) [Example 290, 4-(2-Chlorophenyl)-5-cyano-4,7-dihydro-3-(4-methoxyphenyl)-6-propyl-2H-pyrazolo[3,4-b]pyridine]
218 °C	CN1CC=C(C2=C(C#N)C(c3cccc4nonc34)c3c[nH]nc3N2)CC1 (stereo not drawn) [Example 1014, 4-(2,1,3-Benzoxadiazol-4-yl)-5-cyano-4,7-dihydro-6-(1-methyl-1,2,3,6-tetrahydropyridin-4-yl)-2H-pyrazolo[3,4-b]pyridine]
248 °C	N#CC1=C(C2CC2)Nc2n[nH]cc2C1c1cccc2nocc12 (stereo not drawn) [Example 333, 4-(2,1-Benzoisoxazol-4-yl)-5-cyano-6-cyclopropyl-4,7-dihydro-2H-pyrazolo[3,4-b]pyridine]
214 °C	CCOC(=O)C1=C(c2ccccc2)Nc2n[nH]cc2C1c1ccccc1Cl (stereo not drawn) [Example 85, Ethyl 4-(2-chlorophenyl)-4,7-dihydro-6-phenyl-2H-pyrazolo[3,4-b]pyridine-5-carboxylate]
157 to 161 °C	CCOC(=O)C1=C(C(F)(F)F)Nc2n[nH]cc2C1c1cccs1 (stereo not drawn) [Example 22, Ethyl 4,7-dihydro-4-(thiophen-2-yl)-6-trifluoromethyl-2H-pyrazolo[3,4-b]pyridine-5-carboxylate]
119 to 121 °C	CCCC1=C(C(=O)OCC)C(c2ccccc2Cl)c2cn(C(=O)c3ccccc3)nc2N1 (stereo not drawn) [Example 211, Ethyl 2-benzoyl-4-(2-chlorophenyl)-4,7-dihydro-6-propyl-2H-pyrazolo[3,4-b]pyridine-5-carboxylate]
226 °C	CCCC1=C([N+](=O)[O-])C(c2cccc3ccccc23)c2c[nH]nc2N1 (stereo not drawn) [Example 123, 4,7-Dihydro-4-(naphthalen-1-yl)-5-nitro-6-propyl-2H-pyrazolo[3,4-b]pyridine]
182 °C	CCCC1=C(C(=O)OCC)C(c2cccc3ccccc23)c2c[nH]nc2N1 (stereo not drawn) [Example 66, Ethyl 4,7-dihydro-4-(naphthalen-1-yl)-6-propyl-2H-pyrazolo[3,4-b]pyridine-5-carboxylate]
66 to 68 °C	CCCOC(=O)n1ncc2c1NC(CCC)=C(C(=O)OCC)C2c1ccccc1Cl (stereo not drawn) [Example 221, Ethyl 4-(2-chlorophenyl)-4,7-dihydro-1-propoxycarbonyl-6-propyl-1H-pyrazolo[3,4-b]pyridine-5-carboxylate]
212 °C	CCCC1=C(C#N)C(c2ccccc2Cl)c2c(n[nH]c2C(OC)OC)N1 (stereo not drawn) [Example 336, 4-(2-Chlorophenyl)-5-cyano-4,7-dihydro-3-dimethoxymethyl-6-propyl-2H-pyrazolo[3,4-b]pyridine]

melting point	Structure (SMILES)
205 to 208 °C (dec.)	CCCC1=C(c2ccccn2)C(c2cccc(C#N)c2Br)c2c[nH]nc2N1 (stereo not drawn) [Example 1084, 4-(2-Bromo-3-cyanophenyl)-5-(pyridin-2-yl)-4,7-dihydro-6-propyl-2H-pyrazolo[3,4-b]pyridine]
259 to 262 °C	CCOC(=O)C1=C(C)Nc2n[nH]cc2C1c1ccccc1C(F)(F)F (stereo not drawn) [Example 3, Ethyl 4,7-dihydro-6-methyl-4-(2-trifluoromethylphenyl)-2H-pyrazolo[3,4-b]pyridine-5-carboxylate]
149 °C	COc1ccc(C2=C(C#N)C(c3ccccc3OC)c3c[nH]nc3N2)cc1 (stereo not drawn) [Example 153, 5-Cyano-4,7-dihydro-4-(2-methoxyphenyl)-6-(4-methoxyphenyl)-2H-pyrazolo[3,4-b]pyridine]
218 °C	CCCC1=C(C(=O)OCC)C(c2ccccc2[N+](=O)[O-])c2c[nH]nc2N1 (stereo not drawn) [Example 41, Ethyl 4,7-dihydro-4-(2-nitrophenyl)-6-propyl-2H-pyrazolo[3,4-b]pyridine-5-carboxylate]
157 to 160 °C	CCOC(=O)C1=C(C(F)(F)F)Nc2n[nH]cc2C1c1ccc(C(=O)OCC)cc1 (stereo not drawn) [Example 20, Ethyl 4-(4-ethoxycarbonylphenyl)-4,7-dihydro-6-trifluoromethyl-2H-pyrazolo[3,4-b]pyridine-5-carboxylate]
255 °C	N#CC1=C(c2ccccc2)Nc2n[nH]cc2C1c1cccc2c1OCCC2 (stereo not drawn) [Example 148, 5-Cyano-4-(3,4-dihydro-2H-benzopyran-8-yl)-4,7-dihydro-6-phenyl-2H-pyrazolo[3,4-b]pyridine]
244 °C	COc1ccc(C2=C(C#N)C(c3cccc4nonc34)c3c[nH]nc3N2)cc1 (stereo not drawn) [Example 161, 4-(2,1,3-Benzoxadiazol-4-yl)-5-cyano-4,7-dihydro-6-(4-methoxyphenyl)-2H-pyrazolo[3,4-b]pyridine]
253 °C	CCCC1=C(C#N)C(c2ccccc2Cl)c2c(n[nH]c2-c2ccco2)N1 (stereo not drawn) [Example 295, 4-(2-Chlorophenyl)-5-cyano-4,7-dihydro-3-(furan-2-yl)-6-propyl-2H-pyrazolo[3,4-b]pyridine]
226 °C	N#CC1=C(C2=CCNCC2)Nc2n[nH]cc2C1c1cccc(C#N)c1Br (stereo not drawn) [Example 1047, 4-(2-Bromo-3-cyanophenyl)-5-cyano-4,7-dihydro-6-(1,2,3,6-tetrahydropyridin-4-yl)-2H-pyrazolo[3,4-b]pyridine]
228 °C	CCOC(=O)C1=C(C)Nc2n[nH]cc2C1c1cccc2nonc12 (stereo not drawn) [Example 113, Ethyl 4-(2,1,3-benzoxadiazol-4-yl)-4,7-dihydro-6-methyl-2H-pyrazolo[3,4-b]pyridine-5-carboxylate]
> 270 °C	CCCC1=C(C#N)C(c2ccccc2Cl)c2c(n[nH]c2C(C)C)N1 (stereo not drawn) [Example 315, 4-(2-Chlorophenyl)-5-cyano-4,7-dihydro-6-propyl-3-isopropyl-2H-pyrazolo[3,4-b]pyridine]
211 °C	CCOC(=O)C1=C(c2ccc(OC)cc2)Nc2n[nH]cc2C1c1ccccc1Cl (stereo not drawn) [Example 86, Ethyl 4-(2-chlorophenyl)-4,7-dihydro-6-(4-methoxyphenyl)-2H-pyrazolo[3,4-b]pyridine-5-carboxylate]
220 to 222 °C	CCCC1=C(C(=O)OCC)C(c2cccc(C)c2OC)c2c[nH]nc2N1 (stereo not drawn) [Example 190, Ethyl 4,7-dihydro-4-(2-methoxy-3-methylphenyl)-6-propyl-2H-pyrazolo[3,4-b]pyridine-5-carboxylate]
131 to 134 °C	CCCC1=C(C(=O)OCC)C(c2ccccc2Cl)c2cnn(C(=O)C=Cc3ccccc3)c2N1 (stereo not drawn) [Example 228, Ethyl 4-(2-chlorophenyl)-1-cinnamoyl-4,7-dihydro-6-propyl-1H-pyrazolo[3,4-b]pyridine-5-carboxylate]
228 °C	N#CC1=C(C2CCCCCC2)Nc2n[nH]cc2C1c1cccc2nonc12 (stereo not drawn) [Example 324, 4-(2,1,3-Benzoxadiazol-4-yl)-5-cyano-6-cycloheptyl-4,7-dihydro-2H-pyrazolo[3,4-b]pyridine]
225 °C	N#CC1=C(C2CCCNC2)Nc2n[nH]cc2C1c1cccc(C#N)c1Br.O=C(O)C(F)(F)F (stereo not drawn)
174 °C	CNCC1=C(C#N)C(c2cccc3nonc23)c2c[nH]nc2N1.O=C(O)C(F)(F)F (stereo not drawn)
251 °C	CC(C)(C)C1=C(C#N)C(c2cccc(C#N)c2Br)c2c[nH]nc2N1 (stereo not drawn) [Example 319, 4-(2-Bromo-3-cyanophenyl)-6-t-butyl-5-cyano-4,7-dihydro-2H-pyrazolo[3,4-b]pyridine]
213 °C	CCCCC1=C(C(=O)OCC)C(c2cccc3nonc23)c2c[nH]nc2N1 (stereo not drawn) [Example 239, Ethyl 4-(2,1,3-benzoxadiazol-4-yl)-6-butyl-4,7-dihydro-2H-pyrazolo[3,4-b]pyridine-5-carboxylate]

Structure (SMILES)	melting point
CC(C)(C)OC(=O)N1CC=C(C2=C(C#N)C(c3cccc4nonc34)c3c[nH]nc3N2)CC1 (stereo not drawn) [Example 1012, 4-(2,1,3-Benzoxadiazol-4-yl)-6-(1-t-butoxycarbonyl-1,2,3,6-tetrahydropyridin-4-yl)-5-cyano-4,7-dihydro-2H-pyrazolo[3,4-b]pyridine]	222 °C
